From patent publication US6423704B1, “Substituted 4-(1H-benzimidazol-2-yl)[1,4]diazepanes useful for the treatment of allergic diseases” (Aventis Pharmaceuticals Inc., priority 1995, dated 2002)
Structures can show the parent of a compound that is named as a salt.

Row | melting point | Compound
1 | 40 to 42 °C | CCOCCn1c(N2CCCN(CCC3(c4ccccn4)CCN(C(=O)c4cc(OC)c(OC)c(OC)c4)C3)CC2)nc2ccccc21 (centres unmarked) [Example 32, 1-(3,4,5-Trimethoxybenzoyl)-3-(2-(4-(1-(2-ethoxyethyl)-1H-benzimidazol-2-yl)[1,4]diazepan-1-yl)ethyl)-3-(pyrid-2-yl)pyrrolidine]
2 | 90 to 100 °C | CCOCCn1c(N2CCCN(CCC3(c4ccc(OC)c(OC)c4)CCN(C(=O)c4cc(OC)c(OC)c(OC)c4)C3)CC2)nc2ccccc21 (centres unmarked) (as salt: salt) [Example 1, 1-(3,4,5-Trimethoxybenzoyl)-3-(2-(4-(1-(2-ethoxyethyl)-1H-benzimidazol-2-yl)[1,4]diazepan-1-yl)ethyl)-3-(3,4-dimethoxyphenyl)pyrrolidine]
